# Source: ChEMBL document CHEMBL5108055, “Dual A1/A3 Adenosine Receptor Antagonists: Binding Kinetics and Structure-Activity Relationship Studies Using Mutagenesis and Alchemical Binding Free Energy Calculations” (J Med Chem, 2022)
# Legend:
# Adenosine receptor A1 [1] = target: T1, Adenosine receptor A1 (Homo sapiens, UniProt P30542); experiment: Antagonist activity at wild type A1R (unknown origin) expressed in CHO-K1 cells assessed as inhibition of NECA reduced forskolin stimulated cAMP accumulation incubated for 30 mins; type: functional, cell-based
# T1 sequence (P30542 whole entry): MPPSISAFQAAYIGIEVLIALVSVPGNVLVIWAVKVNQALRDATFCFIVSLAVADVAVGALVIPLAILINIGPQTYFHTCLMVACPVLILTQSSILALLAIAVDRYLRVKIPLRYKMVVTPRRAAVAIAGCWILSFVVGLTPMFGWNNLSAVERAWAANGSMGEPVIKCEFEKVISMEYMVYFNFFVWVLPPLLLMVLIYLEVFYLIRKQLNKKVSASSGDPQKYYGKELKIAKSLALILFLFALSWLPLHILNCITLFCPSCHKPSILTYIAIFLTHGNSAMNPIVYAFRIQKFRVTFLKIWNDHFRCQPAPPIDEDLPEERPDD
# Adenosine receptor A1 [2] = target: T1, Adenosine receptor A1; experiment: Binding affinity to wild type A1R (unknown origin) expressed in CHO-K1 cells assessed as equilibrium binding affinity constant by nanoBRET assay; type: cell-based
# Adenosine receptor A1 [3] = target: T1, Adenosine receptor A1; experiment: Binding affinity to Nluc-A1R (unknown origin) expressed in HEK293 cells by nanoBRET assay; type: cell-based
# Adenosine receptor A3 [4] = target: T2, Adenosine receptor A3 (Homo sapiens, UniProt P0DMS8); experiment: Antagonist activity at wild type A3R (unknown origin) expressed in Flp-In-CHO cells assessed as inhibition of NECA reduced forskolin stimulated cAMP accumulation incubated for 30 mins; type: functional, cell-based
# T2 sequence (P0DMS8 whole entry): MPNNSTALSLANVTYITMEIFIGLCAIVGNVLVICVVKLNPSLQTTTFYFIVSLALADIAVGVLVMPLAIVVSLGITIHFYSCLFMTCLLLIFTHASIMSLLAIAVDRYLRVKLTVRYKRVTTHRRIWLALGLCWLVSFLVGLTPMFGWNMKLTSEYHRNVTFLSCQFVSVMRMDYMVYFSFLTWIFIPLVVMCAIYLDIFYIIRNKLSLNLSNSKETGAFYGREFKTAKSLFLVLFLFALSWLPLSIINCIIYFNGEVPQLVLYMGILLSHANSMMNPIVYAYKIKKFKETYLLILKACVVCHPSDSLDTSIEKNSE
# Adenosine receptor A3 [5] = target: T2, Adenosine receptor A3; experiment: Binding affinity to wild type A3R (unknown origin) expressed in Flp-In-CHO cells assessed as dissociation constant by Schild analysis; type: cell-based
# Adenosine receptor A3 [6] = target: T2, Adenosine receptor A3; experiment: Binding affinity to wild type A3R (unknown origin) expressed in CHO-K1 cells assessed as equilibrium binding affinity constant by nanoBRET assay; type: cell-based, Flp-In-CHO
# Adenosine receptor A3 [7] = target: T2, Adenosine receptor A3; experiment: Binding affinity to Nluc-A3R (unknown origin) expressed in HEK293 cells by nanoBRET assay; type: cell-based
# Adenosine receptor A1 [8] = target: Adenosine receptor A1 (Homo sapiens, UniProt P30542, E172A); experiment: Binding affinity to A1R E172 5.30A mutant (unknown origin) by saturation NanoBRET binding assay
# Adenosine receptor A1 [9] = target: Adenosine receptor A1 (Homo sapiens, UniProt P30542, H251A); experiment: Binding affinity to A1R H251 6.52A mutant (unknown origin) by saturation NanoBRET binding assay
# Adenosine receptor A1 [10] = target: Adenosine receptor A1 (Homo sapiens, UniProt P30542, S267A); experiment: Binding affinity to A1R S267 7.32A mutant (unknown origin) in by saturation NanoBRET binding assay
# [11] = Binding affinity to A1R Y271 7.36A mutant (unknown origin) by saturation NanoBRET binding assay; set-up: species or system Homo sapiens
# Adenosine receptor A1 [12] = target: Adenosine receptor A1 (Homo sapiens, UniProt P30542, L250A)
# Description: Binding affinity to A1R L250 6.51A mutant (unknown origin) by saturation NanoBRET binding assay
# [13] = target: T3, Adenosine receptor A1 (Homo sapiens) (UniProt P30542); experiment: Displacement of [3H]-DPCPX from human adenosine A1R expressed in CHO cells membrane assessed as association constant (kon) incubated for 45 mins; type: cell membranes; details: filed as antagonist
# T3 sequence (whole entry): T1 sequence (P30542 whole entry)
# [14] = target: T3, Adenosine receptor A1 (Homo sapiens); experiment: Displacement of [3H]-DPCPX from human adenosine A1R expressed in CHO cells membrane assessed as dissociation constant (koff) preincubated for 1 hr followed by compound addition and measured after 1 hr; type: cell membranes; details: filed as antagonist
# Adenosine receptor A1 [15] = target: T1, Adenosine receptor A1; experiment: Displacement of [3H]-DPCPX from human adenosine A1R expressed in CHO cells membrane incubated for 1 hr; type: cell membranes
# [16] = target: T3, Adenosine receptor A1 (Homo sapiens); experiment: Displacement of [3H]-DPCPX from human adenosine A1R expressed in CHO cells membrane assessed as residence time; type: cell membranes; details: filed as antagonist
# [17] = target: T4, Adenosine receptor A3 (Homo sapiens) (UniProt P0DMS8); experiment: Binding affinity to N-terminal Nano-luc tagged human adenosine A3R expressed in HEK293 cells membrane assessed as association constant (kon); type: cell membranes; details: filed as antagonist
# T4 sequence (whole entry): T2 sequence (P0DMS8 whole entry)
# [18] = target: T4, Adenosine receptor A3 (Homo sapiens); experiment: Binding affinity to N-terminal Nano-luc tagged human adenosine A3R expressed in HEK293 cells membrane assessed as dissociation constant (koff); type: cell membranes; details: filed as antagonist
# [19] = target: T4, Adenosine receptor A3 (Homo sapiens); experiment: Binding affinity to N-terminal Nano-luc tagged human adenosine A3R expressed in HEK293 cells membrane assessed as residence time; type: cell membranes; details: filed as antagonist
# Adenosine receptor A3 [20] = target: T2, Adenosine receptor A3; experiment: Binding affinity to N-terminal Nano-luc tagged human adenosine A3R expressed in HEK293 cells membrane; type: cell membranes
# [21] = target: T4, Adenosine receptor A3 (Homo sapiens); experiment: Binding affinity to human adenosine A3R expressed in CHO cells membrane assessed as binding constant (kon); type: cell membranes; details: filed as antagonist
# [22] = target: T4, Adenosine receptor A3 (Homo sapiens); experiment: Binding affinity to human adenosine A3R expressed in CHO cells membrane assessed as dissociation constant (koff); type: cell membranes; details: filed as antagonist
# [23] = target: T4, Adenosine receptor A3 (Homo sapiens); experiment: Binding affinity to human adenosine A3R expressed in CHO cells membrane assessed as residence time; type: cell membranes; details: filed as antagonist
# Adenosine receptor A3 [24] = target: T2, Adenosine receptor A3; experiment: Binding affinity to human adenosine A3R expressed in CHO cells membrane; type: cell membranes
# Adenosine receptor A1 [25] = target: T1, Adenosine receptor A1; experiment: Binding affinity to wild type A1R (unknown origin) by saturation NanoBRET binding assay
# Adenosine receptor A1 [26] = target: T1, Adenosine receptor A1; experiment: Binding affinity to human adenosine A1R expressed in CHO cells membrane; type: cell membranes
# Adenosine receptor A1 (Homo sapiens, UniProt P30542, L250A), sequence (P30542 whole entry L250A): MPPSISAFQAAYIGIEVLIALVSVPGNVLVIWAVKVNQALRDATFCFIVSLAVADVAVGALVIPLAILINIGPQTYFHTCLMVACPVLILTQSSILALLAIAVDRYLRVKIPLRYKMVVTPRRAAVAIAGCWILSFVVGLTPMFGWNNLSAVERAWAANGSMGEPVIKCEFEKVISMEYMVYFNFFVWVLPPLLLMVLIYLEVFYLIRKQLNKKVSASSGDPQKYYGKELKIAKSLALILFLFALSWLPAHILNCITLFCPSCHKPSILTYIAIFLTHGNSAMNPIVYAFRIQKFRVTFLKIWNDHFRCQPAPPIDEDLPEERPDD
# Adenosine receptor A1 (Homo sapiens, UniProt P30542, H251A), sequence (P30542 whole entry H251A): as the sequence (P30542 whole entry L250A) above, with A250L, H251A counted along it
# Adenosine receptor A1 (Homo sapiens, UniProt P30542, S267A), sequence (P30542 whole entry S267A): as the sequence (P30542 whole entry L250A) above, with A250L, S267A counted along it
# Adenosine receptor A1 (Homo sapiens, UniProt P30542, E172A), sequence (P30542 whole entry E172A): as the sequence (P30542 whole entry L250A) above, with E172A, A250L counted along it
Compound,IC50 (Adenosine receptor A1 [1]) [nM],Ki (Adenosine receptor A1 [2]) [nM],Kd (Adenosine receptor A1 [3]) [nM],IC50 (Adenosine receptor A3 [4]) [nM],Kd (Adenosine receptor A3 [5]) [nM],Ki (Adenosine receptor A3 [6]) [nM],Kd (Adenosine receptor A3 [7]) [nM],further results
COc1cc(Nc2nc(C#N)cc3cn[nH]c23)cc(OC)c1OC,10.2,229,102,,,,,
COc1cc(Nc2nc(Cl)cc3c(-c4ccccc4)n[nH]c23)cc(OC)c1OC,,,,12.3,89.1,55,85.1,
CCCn1c(=O)c2[nH]c(-c3ccc(OCC(=O)NCCNC(=O)CCNC(=O)CCCCNC(=O)CCCCCNC(=O)COc4ccc(/C=C/C5=[N+]6C(=Cc7ccc(-c8cccs8)n7[B-]6(F)F)C=C5)cc4)cc3)nc2n(CCC)c1=O,,,,,,,,Kd (Adenosine receptor A1 [8]; read-out: Kd): 116 nM; Kd (Adenosine receptor A1 [9]; read-out: Kd): 145 nM; Kd (Adenosine receptor A1 [10]; read-out: Kd): 71 nM; Kd [11]: 71.1 nM; Kd (Adenosine receptor A1 [12]): 158 nM
N#Cc1c(N)nc(SCc2ncc[nH]2)c(C#N)c1-c1ccc(O)cc1,,,,,,,,K [13]: 2 10^8/M/min; K [14]: 0.92 min⁻¹; Kd (Adenosine receptor A1 [15]): 4.6 nM; TIME [16]: 0.0183 h
COc1cccc(Cn2c(=O)n(CC3CC3)c(=O)c3c2nc2cc(OC)ccn23)c1,,,,,,,,K [17]: 8.17 10^6/M/min; K [18]: 0.0065 min⁻¹; TIME [19]: 2.8 h; Kd (Adenosine receptor A3 [20]): 9.11 nM
CC[C@@H]1CN2C(=O)N(C)C3N=C(c4ccccc4)NC3C2=N1 (some centres undefined),,,,,,,,K [21]: 2.35 10^8/M/min; K [22]: 0.208 min⁻¹; TIME [23]: 0.08 h; Kd (Adenosine receptor A3 [24]): 0.46 nM
COc1cc(Nc2nc(Cl)cc3c(C(C)C)n[nH]c23)cc(OC)c1OC,5.01,288,282,2.82,550,631,,
COc1cc(Nc2nc(C#N)cc3c(-c4ccccc4)n[nH]c23)cc(OC)c1OC,200,4.37,1.74,,,,,Kd (Adenosine receptor A1 [25]): 13.5 nM; Kd (Adenosine receptor A1 [8]; read-out: pKd (converted)): 23.4 nM; Kd (Adenosine receptor A1 [9]; read-out: pKd (converted)): 9.33 nM; Kd (Adenosine receptor A1 [10]; read-out: pKd (converted)): 7.94 nM; Kd (Adenosine receptor A1 [12]): 3.63 nM
CCNC(=O)[C@H]1O[C@@H](n2cnc3c(N)ncnc32)[C@H](O)[C@@H]1O [NECA],,,,,,,,pKd [11]: 5.45
COc1cc(Nc2nc(C#N)cc3c(C(C)C)n[nH]c23)cc(OC)c1OC,,,,3.8,355,603,,
CCCn1c(=O)[nH]c(=O)c2[nH]c(C3CCCC3)nc21,,,,,,,,Kd (Adenosine receptor A1 [26]): 1.5 nM

# The next lines start with results.
IC50 (Adenosine receptor A1 [1]) [nM],Ki (Adenosine receptor A1 [2]) [nM],Kd (Adenosine receptor A1 [3]) [nM],IC50 (Adenosine receptor A3 [4]) [nM],Kd (Adenosine receptor A3 [5]) [nM],Ki (Adenosine receptor A3 [6]) [nM],Kd (Adenosine receptor A3 [7]) [nM],Compound,further results
2.63,295,398,,,,,Cn1nc(NC(=O)CNc2ccccc2)c2cc(Nc3ccccc3)ncc21,
13.5,214,61.7,60.3,17,43.7,26.3,N#Cc1cc2c(-c3ccccc3)n[nH]c2c(Nc2ccccc2)n1,
22.9,22.9,40.7,4.9,257,132,257,COc1cc(Nc2nc(CN)cc3c(-c4ccccc4)n[nH]c23)cc(OC)c1OC,
5.01,> 955,851,6.76,170,234,,Cn1nc(NC(=O)c2ccccc2)c2cc(Nc3ccccc3)ncc21,
6.92,363,282,3.02,490,0.115,355,O=C(CNc1ccccc1)Nc1n[nH]c2cnc(Nc3ccccc3)cc12,
,,,5.13,251,100,74.1,COc1cc(Nc2nccc3c(-c4ccccc4)n[nH]c23)cc(OC)c1OC,
1.41,1000,,4.27,302,64.6,,Cn1nc(NC(=O)Nc2ccccc2)c2ccnc(NC3CCCCC3)c21,
3.89,204,427,7.24,158,85.1,186,COc1cc(Nc2nc(CNCc3ccccc3)cc3c(-c4ccccc4)n[nH]c23)cc(OC)c1OC,
